Like-named read-outs stand apart in the source and are kept apart here. Where no end group is shown, it is not given here.
Tests used:
B16F10 murine melanoma [1] = experiment: Subcutaneous B16F10 murine melanoma model, cisplatin positive control (separate historical control study); type: in vivo, mice
Source text: (§1) B16F10 murine melanoma model is derived from MB16 line by successive selection of metastatic clones. B16F1 to B16F10 (ATCC Number CRL-6475™) were generated, with F10 being passaged in mice for 10 times, and thus highly metastatic. This model is widely used in studying metastasis mechanisms, evaluating cancer therapeutics. It is also one of the most common syngeneic models for cancer immunotherapy. Both subcutaneous and experimental metastasis models are very useful.
(§2) Tumor volumes and body weights were monitored throughout the study. Cisplatin was administered to the positive control group in a separate historical control study. The negative control group was administered with vehicle only in all studies.
B16F10 mice treated with cisplatin typically show reduced tumor volume (FIG. 1A and Table 3).

[2] = system: B16-F10 cells (lung metastases); settings: for Mean Met Count / Percent Inhibition: Day 16; for Mean Met Count: SR1 220.51 μg/animal sc bid to end, Anti-PD-1-SCE 100 μg/animal ip biwk ×3, combination at the same doses, Cyclophosphamide 300 mg/kg ip Qd ×1; for Percent Inhibition: [1 − (T/C)] × 100, compared to Group 1 (vehicle); for Deaths NTR (non-treatment-related death) / Deaths TR (treatment-related death): n = 10 per group
Protocol: (§3) The animals were fed ad libitum water (reverse osmosis, 1 ppm Cl) and NIH 31 Modified and Irradiated Lab Diet® consisting of 18.0% crude protein, 5.0% crude fat, and 5.0% crude fiber. The mice were housed on irradiated Enrich-o'cobs™ bedding in static microisolators on a 12-hour light cycle at 20-22° C. (68-72° F.) and 40-60% humidity. DRS-NC specifically complies with the recommendations of the Guide for Care and Use of Laboratory Animals with respect to restraint, husbandry, surgical procedures, feed and fluid regulation, and veterinary care. The animal care and use program at DRS-NC is accredited by the Association for Assessment and Accreditation of Laboratory Animal Care International, which assures compliance with accepted standards for the care and use of laboratory animals.
(§4) A sixth group of animals was included as the “look-see” group (n=9). B16-F10 cells were harvested during log-phase growth and resuspended at a concentration of 7.5×10^5 cells/mL in PBS. Each mouse received an intravenous (i.v.) tail vein injection of 1.5×10^5 B16-F10 cells (0.2 mL cell suspension) on D1 of the study.
(§5) Test Articles: Anti-PD1 alpha peptide (coded as anti-PD-1-SCE, Lot. No. 5177/0214) and thymosin alpha-1 peptide (Thymalfasin, code-named SR1, Lot. No. 1402-224). DRS-NC assigned code names for the purpose of confidentiality during in-house testing. […] Dosing was not adjusted per body weight. Anti-PD-1-SCE antibody was diluted in PBS to yield a 10.0 mg/mL dosing solution, which provided a 100 mg/kg dosage in a dosing volume of 10 mL/kg. Dosing was not adjusted per body weight. […] Dosing was adjusted per body weight.
(§6) Endpoint: The endpoint of the B16MET-e117 study was defined as 100 metastases per lung set. Two to three animals from the “look-see” group were euthanized in three days intervals beginning on Day 9 and lung metastatic foci were counted. […] The study was terminated on D16 and all animals were euthanized and their metastases counted. Percent inhibition was defined as the difference between the number of metastatic foci of the designated control group and the number of metastatic foci of the drug-treated group, expressed as a percentage of the number of metastatic foci of the designated control group: % Inhibition=[1−(#Focidrug-treated/#Focicontrol)]×100
(§7) Toxicity: Animals were weighed daily for the first five days of the study and twice weekly thereafter. […] Acceptable toxicity was defined as a group mean body-weight loss of less than 20% during the study and not more than one treatment-related (TR) death among ten treated animals. Any dosing regimen resulting in greater toxicity is considered above the maximum tolerated dose (MTD). A death is classified as TR if attributable to treatment side effects as evidenced by clinical signs and/or necropsy, or if due to unknown causes during the dosing period or within fourteen days of the last dose. A death is classified as non-treatment-related (NTR) if there is no evidence that death was related to treatment side effects.
Statistical and Graphical Analyses: Prism (GraphPad) for Windows 6.02 was used for all graphical presentations and statistical analyses. The Mann-Whitney U-test, for analysis of medians, was used to determine the statistical significance between D16 B16F10 metastatic foci in control and treated groups. Two-tailed statistical analyses were conducted at P=0.05. A “box and whiskers” diagram was constructed to show the distribution of enumerated metastatic foci for each treatment group on D16.
Prism reports results as non-significant (ns) at P>0.05, significant (symbolized by “*”) at 0.01<P≤0.05, very significant (“**”) at 0.001<P≤0.01, and extremely significant (“***”) at P≤0.001.

[3] = system: B16-F10 cells (lung metastases); settings: for Mean Met Count: Day 15; for Inhibition (%): compared to Group 1; for Deaths NTR / Deaths TR: n = 10
Protocol: as §3, §4, §5, §6, §7
B16F10 Mouse Lung Metastatic Melanoma Model was developed. About 1.5×10^5 B16-F10 cells (0.2 mL cell suspension) were grown in vitro and administered intravenously (Day 0) to female B6D2F1/Crl mice. On Day 1 dosing with test agents initiated.
A “look see”-untreated-group was set to evaluate, over a period of 15 days, the number of metastasis. […] Three days later other three mice were examined. When the met count reached approximately 50-100 counts, all groups in the study were sacrificed and final met counts were established. The “look see” group count was not included in the final efficacy analysis. 50-100 met count defined as the target number because most of the individual metastasis could be count easily and mets were less likely to merge with each other difficulty the counting.

[4] = system: B16F10 Murine Melanoma (lung metastasis foci); experiment: Systemic B16F10 murine melanoma model, lung metastasis foci (independent laboratory); type: in vivo, C57BL/6 mice
B16F10 murine melanoma [5] = experiment: Subcutaneous B16F10 murine melanoma model, thymosin (Study No. 1 and Study No. 2); type: in vivo, C57BL/6 mice; settings: for mean tumor size / T/C value: day 14 post tumor inoculation; for tumor growth delay: at tumor size of 1,140 mm^3
Source text: as §1
To study the effect of thymosin in treating melanoma, thymosin alpha peptide (ZADAXIN) was administered to mice inoculated with B16F10 in two separate studies:
as §2

IL-1β [6] = experiment: Biomarker evaluation in subcutaneous B16F10 murine melanoma model (FIG. 4A); type: in vivo, C57BL/6 mice; settings: subcutaneously twice a day for 6 days at 0.02, 0.06, 0.2, 0.3, 2, or 6 mg/kg, D4 and D7 after start of dosing
Protocol: (§8) FIG. 4A depicts evaluation of IL-1β in subcutaneous B16F10 murine melanoma model in C57BL/6 mice treated with thymosin. ZADAXIN™ (thymalfasin) was administered to mice subcutaneously twice a day for 6 days at 0.02, 0.06, 0.2, 0.3, 2, or 6 mg/kg 10 μL/g. IL-1β levels were lower in ZADAXIN™ (thymalfasin) treated groups compared to vehicle treated groups at D4 and D7 after start of dosing.
(§9) In the studies described above, a group of potential biomarkers were tested in, including IL-7, 11-18, TREM-1, IFN-α, procalcitonin, GM-CSF, IL-1α, IFN-γ, TNF a, IL-2, IL-4, IL-5, IL-6, IL-10, IL-12p70, and IL-1β.

IL-4 = experiment: Biomarker evaluation in subcutaneous B16F10 murine melanoma model (FIG. 4B); type: in vivo, C57BL/6 mice; settings: subcutaneously twice a day for 6 days at 0.02, 0.06, 0.2, 0.3, 2, or 6 mg/kg, D4 and D7 after start of dosing
Protocol: as §8, with “4B” for “4A”, “IL-4” for “IL-1β”, “higher” for “lower”
as §9

IL-6 = experiment: Biomarker evaluation in subcutaneous B16F10 murine melanoma model (FIG. 4C); type: in vivo, C57BL/6 mice; settings: subcutaneously twice a day for 6 days at 0.02, 0.06, 0.2, 0.3, 2, or 6 mg/kg, D4 and D7 after start of dosing
Protocol: as §8, with “4C” for “4A”, “IL-6” for “IL-1β”
as §9

IL-1β [7] = experiment: Biomarker evaluation in subcutaneous B16F10 murine melanoma model (FIG. 4D); type: in vivo, C57BL/6 mice; settings: subcutaneously twice a day for 6 days at 0.02, 0.06, 0.2, 0.3, 2, or 6 mg/kg, D4 and D7 after start of dosing
Protocol: as §8, with “4D” for “4A”
as §9

[8] = Group 13: Cyclophosphamide 300 mg/kg ip qd ×1
[9] = Group 13: Cyclophosphamide 300 mg/kg
[10] = Group 9: Cyclophosphomide 300 mg/kg
[11] = Group 2: SR1 0.4862 μg/animal sc bid to end
[12] = Group 3: SR1 4.86 μg/animal sc bid to end
[13] = Group 4: SR1 48.62 μg/animal sc bid to end

N.N.[Cl][Pt][Cl] [Cisplatin]
Tumor Size (mm^3) on Day 28 (B16F10 murine melanoma [1]; B16F10 mice treated with cisplatin, Day 28, historical control study): 862 ± 233 mm^3 | body weight (B16F10 murine melanoma [1]; B16F10 mice treated with cisplatin, FIG. 1B, result of the toxicity of cisplatin): significantly reduced body weight | T/C Value (%) on Day 28 (B16F10 murine melanoma [1]; cisplatin vs vehicle, Day 28): 30% | T-C (days) at 800 mm^3 (B16F10 murine melanoma [1]; cisplatin vs vehicle, at tumor size 800 mm^3): >4 days

O=P1(N(CCCl)CCCl)NCCCO1 (centres unmarked) [Cyclophosphamide]
Mean Met Count [2]: 0.5 | Percent Inhibition ([2]; doses as E23): 99.5% | Mean BW Nadir ([2]; lowest group mean body weight, as % change from Day 1, Cyclophosphamide nadir on Day 3, doses as E23): −4.3% | Deaths NTR (non-treatment-related death) ([2]; doses as E23): 0 | Deaths TR (treatment-related death) ([2]; doses as E23): 0 | Mean Met Count [3, 8]: 2 | Inhibition (%) [3, 8]: 99% | Mean BW Nadir ([3]; Group 13: Cyclophosphamide 300 mg/kg, % change from Day 1, nadir Day 2): −8.0% | Deaths NTR [3, 9]: 0 | Deaths TR [3, 9]: 0 | Inhibition (%) [4, 10]: 100% | Number of metastasis foci on day 13 (Mean ± SEM) [4, 10]: 0 ± 0

thymosin alpha 1 (Ac-SDAAVDTSSEITTKDLKEKKEVVEEAEN) [TA1, synthetic version sold as ZADAXIN (thymalfasin); code-named SR1]
tumor growth compared with vehicle treated group (B16F10 murine melanoma [5]; all doses tested, FIG. 2 and FIG. 3): reduced tumor growth | tumor growth compared with vehicle treated group (FIG. 3) (B16F10 murine melanoma [5]; several different doses, all tested doses): statistically significant reduced tumor growth | mean tumor size (B16F10 murine melanoma [5]; study I, TA1 0.2 mg/kg bid i.p. for 7 days): 1,148 mm^3 | tumor growth delay (B16F10 murine melanoma [5]; study I, TA1 0.2 mg/kg): 1.5 days | T/C value (B16F10 murine melanoma [5]; study I, TA1 0.2 mg/kg): 57.56% | mean tumor size (B16F10 murine melanoma [5]; study I, TA1 2 mg/kg bid i.p. for 7 days): 1,384 mm^3 | tumor growth delay (B16F10 murine melanoma [5]; study I, TA1 2 mg/kg): 0.5 days | T/C value (B16F10 murine melanoma [5]; study I, TA1 2 mg/kg): 69.36% | tumor growth (B16F10 murine melanoma [5]; study I, TA1 6 mg/kg, decrease didn't reach a significant difference): can delay tumor growth | weight changes by group (B16F10 murine melanoma [5]; thymosin treated B16F10 mice): no significant weight changes | IL-1β levels compared to vehicle treated groups (IL-1β [6]): lower | IL-4 levels compared to vehicle treated groups (IL-4): higher | IL-6 levels compared to vehicle treated groups (IL-6): lower | IL-1β levels compared to vehicle treated groups (FIG. 4D) (IL-1β [7]): lower | Mean Met Count [2]: 72.5 | metastases to lung in melanoma model ([2]; Study I): decreases metastases to lung | Percent Inhibition ([2]; doses as E23): 31.5% | Deaths NTR (non-treatment-related death) ([2]; doses as E23): 0 | Deaths TR (treatment-related death) ([2]; doses as E23): 0 | Mean Met Count [3, 11]: 186 | Inhibition (%) [3, 11]: −17% | Deaths NTR ([3]; Group 2: SR1 0.4862 μg/animal): 0 | Deaths TR ([3]; Group 2: SR1 0.4862 μg/animal): 0 | Mean Met Count [3, 12]: 182 | Inhibition (%) [3, 12]: −14% | Deaths NTR ([3]; Group 3: SR1 4.86 μg/animal): 0 | Deaths TR ([3]; Group 3: SR1 4.86 μg/animal): 0 | Mean Met Count [3, 13]: 167 | Inhibition (%) [3, 13]: −5% | Deaths NTR ([3]; Group 4: SR1 48.62 μg/animal): 0 | Deaths TR ([3]; Group 4: SR1 48.62 μg/animal): 0 | Inhibition (%) ([4]; Group 3: TA1 0.486 μg/mouse): 20.35% | Number of metastasis foci on day 13 (Mean ± SEM) ([4]; Group 3: TA1 0.486 μg/mouse): 92 ± 9 | Inhibition (%) ([4]; Group 4: TA1 4.86 μg/mouse): 41.83% | Number of metastasis foci on day 13 (Mean ± SEM) ([4]; Group 4: TA1 4.86 μg/mouse): 67 ± 12 | Inhibition (%) ([4]; Group 5: TA1 48.6 μg/mouse): 42.26% | Number of metastasis foci on day 13 (Mean ± SEM) ([4]; Group 5: TA1 48.6 μg/mouse): 66 ± 10

Reference: US12569542B2, “Treatment of cancer with immune stimulators” (SciClone Pharmaceuticals International (SG) PTE. LTD., priority 2014, dated 2026)
